Reference: patent publication US7652063B2, “10-hydroxy-11-dihydroprostaglandin analogs as selective EP4 agonists” (Allergan, Inc., priority 2004, dated 2010)

Legend:
HEP3D = target: T1, HEP3D (Homo sapiens, UniProt P43115); assay: Radioligand binding, hEP3D; conditions: competition vs 5 nM [3H]-PGE2
T1 sequence (P43115 1-374 isoform P43115-4): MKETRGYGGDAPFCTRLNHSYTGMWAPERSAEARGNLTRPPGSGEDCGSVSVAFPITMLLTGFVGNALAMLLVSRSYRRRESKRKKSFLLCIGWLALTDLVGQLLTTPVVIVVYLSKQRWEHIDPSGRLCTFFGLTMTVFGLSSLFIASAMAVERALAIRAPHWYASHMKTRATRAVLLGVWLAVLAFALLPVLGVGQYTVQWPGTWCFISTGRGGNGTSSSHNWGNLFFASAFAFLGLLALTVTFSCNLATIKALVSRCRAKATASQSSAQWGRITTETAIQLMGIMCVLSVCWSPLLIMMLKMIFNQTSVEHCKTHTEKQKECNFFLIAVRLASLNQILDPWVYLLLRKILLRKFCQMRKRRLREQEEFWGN

EP4 receptors = target: T2, EP4 receptors (Homo sapiens, UniProt P35408); assay: Radioligand binding, hEP4; conditions: HEK-293 membranes, competition vs 5 nM [3H]-PGE2
T2 construct: expressed in transfected cells; host or cells: HEK-293 (membrane fraction)
Method: Cells Stably Expressing EP1, EP2, EP4 and FP Receptors
HEK-293 cells stably expressing the human or feline FP receptor, or EP1, EP2, or EP4 receptors were washed with TME buffer, scraped from the bottom of the flasks, and homogenized for 30 sec using a Brinkman PT 10/35 polytron. TME buffer was added to achieve a final 40 ml volume in the centrifuge tubes (the composition of TME is 100 mM TRIS base, 20 mM MgCl2, […]; 10N HCl is added to achieve a pH of 7.4).
The cell homogenate was centrifuged at 19000 r.p.m. for 20 min at 4° C. using a Beckman Ti-60 rotor. The resultant pellet was resuspended in TME buffer to give a final 1 mg/ml protein concentration, as determined by Biorad assay. Radioligand binding competition assays vs. [^3H-]17 -phenyl PGF2α (5 nM) were performed in a 100 μl volume for 60 min. Binding reactions were started by adding plasma membrane fraction. The reaction was terminated by the addition of 4 ml ice-cold TRIS-HCl buffer and rapid filtration through glass fiber GF/B filters using a Brandel cell harvester. The filters were washed 3 times with ice-cold buffer and oven dried for one hour.
[^3H-] PGE2 (specific activity 180 Ci mmol) was used as the radioligand for EP receptors. [^3H] […] 17-phenyl PGF2α and non-specific binding determined with 10^−5 M of unlabeled PGE2, or 17-phenyl PGF2α, according to receptor subtype studied.

hEP4/Gqs5 = target: T3, hEP4/Gqs5 (Homo sapiens, UniProt P35408); assay: FLIPR calcium signal, hEP4; format: cell-based; conditions: HEK-293(EBNA) cells, read-out: FUNCTIONAL (nm) HEP4
T3 construct: expressed in transfected cells; host or cells: HEK-293(EBNA)
Method: (§1) Methods for Flipr™ Studies
(§2) HEK-293(EBNA) cells, stably expressing one type or subtype of recombinant human prostaglandin receptors (prostaglandin receptors expressed: hDP/Gqs5; hEP1; hEP2/Gqs5; hEP3A/Gqi5; hEP4/Gqs5; hFP; hIP; hTP), were cultured in 100 mm culture dishes in high-glucose DMEM medium containing 10% fetal bovine serum, 2 mM 1-glutamine, 250 μg/ml geneticin (G418) and 200 μg/ml hygromycin B as selection markers, and 100 units/ml penicillin G, 100 μg/ml streptomycin and 0.25 μg/ml amphotericin B.
(§3) (b) Calcium Signal Studies on the Flipr™
(§4) Cells were seeded at a density of 5×10^4 cells per well in Biocoat® Poly-D-lysine-coated black-wall, clear-bottom 96-well plates (Becton-Dickinson) and allowed to attach overnight in an incubator at 37° C. Cells were then washed two times with HBSS-HEPES buffer (Hanks Balanced Salt Solution without bicarbonate and phenol red, 20 mM HEPES, pH 7.4) using a Denley Cellwash plate washer (Labsystems). […]
(§5) Cells were excited with an Argon laser at 488 nm, and emission was measured through a 510-570 nm bandwidth emission filter (FLIPR™, Molecular Devices, Sunnyvale, Calif.). […] The peak increase in fluorescence intensity was recorded for each well. […] The peak fluorescence change in each drug-containing well was then expressed relative to the controls. […]

hTP = target: T4, hTP (Homo sapiens, UniProt P21731); assay: FLIPR calcium signal, hTP; format: cell-based; conditions: HEK-293(EBNA) cells, read-out: FUNCTIONAL (nm) HTP
T4 construct: expressed in transfected cells; host or cells: HEK-293(EBNA)
T4 sequence (P21731 1-343): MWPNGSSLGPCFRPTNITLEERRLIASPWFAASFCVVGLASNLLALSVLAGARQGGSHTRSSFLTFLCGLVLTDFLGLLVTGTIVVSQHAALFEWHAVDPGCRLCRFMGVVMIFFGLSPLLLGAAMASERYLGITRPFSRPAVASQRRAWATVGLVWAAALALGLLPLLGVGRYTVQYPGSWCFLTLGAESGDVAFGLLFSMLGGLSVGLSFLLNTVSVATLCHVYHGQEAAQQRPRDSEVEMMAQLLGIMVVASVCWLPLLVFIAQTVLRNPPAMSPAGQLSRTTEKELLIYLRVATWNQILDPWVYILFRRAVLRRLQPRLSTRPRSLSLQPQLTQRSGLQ
Method: as §1, §2, §3, §4, §5

T2 sequence (P35408 whole entry): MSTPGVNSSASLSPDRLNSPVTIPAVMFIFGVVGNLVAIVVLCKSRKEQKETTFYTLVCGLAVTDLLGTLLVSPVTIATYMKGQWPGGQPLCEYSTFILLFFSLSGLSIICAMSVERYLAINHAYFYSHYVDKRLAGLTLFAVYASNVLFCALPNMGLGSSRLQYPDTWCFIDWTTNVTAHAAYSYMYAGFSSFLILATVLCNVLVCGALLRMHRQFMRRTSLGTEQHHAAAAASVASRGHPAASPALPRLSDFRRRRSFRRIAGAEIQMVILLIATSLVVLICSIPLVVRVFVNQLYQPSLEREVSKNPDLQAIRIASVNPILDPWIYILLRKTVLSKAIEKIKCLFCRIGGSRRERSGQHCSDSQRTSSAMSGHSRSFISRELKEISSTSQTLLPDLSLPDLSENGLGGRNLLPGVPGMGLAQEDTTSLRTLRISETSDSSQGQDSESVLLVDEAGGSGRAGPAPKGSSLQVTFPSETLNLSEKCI
T3 sequence (P35408 whole entry): as above

Compound	IC50 (HEP3D)	IC50 (EP4 receptors)	EC50 (hEP4/Gqs5)	EC50 (hTP)
O=C(O)CCC/C=C\C[C@H]1C(=O)C(O)C[C@@H]1/C=C/C(O)CCc1sc2ccccc2c1Cl (single isomer, unassigned) [Compound 9H]	> 10 µM	0.17 µM	0.053 µM	–
O=C(O)CCC/C=C\C[C@H]1C(=O)C(O)C[C@@H]1/C=C/C(O)CCc1sc2ccccc2c1Cl (single isomer, unassigned) [Compound 9L]	8.7 µM	0.2 µM	0.078 µM	> 10 µM
